According to patent US20250230193A1, “CYCLIC COMPOUND HAVING SELECTIVE KRAS INHIBITORY EFFECT ON HRAS AND NRAS” (CHUGAI SEIYAKU KABUSHIKI KAISHA, priority 2022, published 2025):
Where a SMILES comes first, the peptide text is derived from it. Bridges are numbered along the chain shown (N, C = ends). [ ]: non-standard residue; d: D form. The star is where a group is joined. hPhe(3-Cl-4-CF3) = N[C@@H](CCc1ccc(C(F)(F)F)c(Cl)c1)C(=O)O; NPrPhe(4-CF3) = CCCN[C@@H](Cc1ccc(C(F)(F)F)cc1)C(=O)O; NMeGly(cPent) = CN[C@H](C(=O)O)C1CCCC1; NEtLeu = CCN[C@@H](CC(C)C)C(=O)O; NMeD = CN[C@@H](CC(=O)O)C(=O)O; NMeL = CN[C@@H](CC(C)C)C(=O)O; NMeNva = CCC[C@H](NC)C(=O)O; Morpholide = C1CN(*)CCO1; Ac4c = NC1(C(=O)O)CCC1; NPrGly = CCCNCC(=O)O; NEtG = CCNCC(=O)O; Sar = CNCC(=O)O

Experiments:
[1] = target: GDP-bound NRAS wild-type protein (Homo sapiens, UniProt P01111); assay: Binding to NRAS by surface plasmon resonance (SPR), Single Cycle Kinetics; conditions: KD ratio, GDP-bound NRAS wild-type vs GDP-bound KRAS wild-type, SPR
GDP-bound NRAS wild-type protein, sequence (P01111 whole entry): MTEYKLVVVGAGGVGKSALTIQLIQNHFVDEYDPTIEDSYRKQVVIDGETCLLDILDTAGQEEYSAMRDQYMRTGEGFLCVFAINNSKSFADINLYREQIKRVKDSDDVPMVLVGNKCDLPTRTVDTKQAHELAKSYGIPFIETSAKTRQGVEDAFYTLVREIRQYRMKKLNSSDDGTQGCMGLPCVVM

[2] = target: GDP-bound HRAS wild-type protein (Homo sapiens, UniProt P01112); assay: Binding to HRAS by surface plasmon resonance (SPR), Single Cycle Kinetics; conditions: KD ratio, GDP-bound HRAS wild-type vs GDP-bound KRAS wild-type, SPR
GDP-bound HRAS wild-type protein, sequence (P01112 whole entry): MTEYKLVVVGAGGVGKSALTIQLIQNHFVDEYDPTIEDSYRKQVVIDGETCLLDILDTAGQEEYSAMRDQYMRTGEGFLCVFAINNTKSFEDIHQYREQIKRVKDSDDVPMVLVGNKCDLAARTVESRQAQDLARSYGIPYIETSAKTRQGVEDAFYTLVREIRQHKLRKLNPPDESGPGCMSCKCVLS

Row | SMILES | NRAS/KRAS (ratio of KD value for NRAS to KD value for KRAS) [1] | HRAS/KRAS (ratio of KD value for HRAS to KD value for KRAS) [2]
1 | CCC[C@H]1C(=O)N[C@@H]([C@@H](C)CC)C(=O)N(C)CC(=O)N(C)[C@H]2C/C=C\CCN(C2=O)[C@@H](Cc2ccc(C(F)(F)F)cc2)C(=O)N(C)CC(=O)N[C@@H](CCc2cc(F)c(C(F)(F)F)c(F)c2)C(=O)N(C)[C@@H](C)C(=O)NC2(CC(C)(C)C2)C(=O)N(C)[C@@H](C2CCCC2)C(=O)N(C)[C@H](C(=O)N(C)C)CC(=O)N1C [PP1934] | A (a compound having 10 or more and less than 20 is denoted as A) | A (a compound having 10 or more and less than 20 is denoted as A)
2 | CC[C@H](C)[C@@H]1NC(=O)[C@H](CC)N(C)C(=O)C[C@@H](C(=O)N(C)C)N(C)C(=O)[C@H](C2CCCC2)N(C)C(=O)C2(CC(C)(C)C2)NC(=O)[C@H](CC)N(C)C(=O)[C@H](CCc2cc(F)c(C(F)(F)F)c(F)c2)NC(=O)CN(C)C(=O)[C@H](Cc2ccc(C(F)(F)F)cc2)N2CC/C=C\C[C@@H](C2=O)N(C)C(=O)CN(C)C1=O [PP1935] | A (a compound having 10 or more and less than 20 is denoted as A) | A (a compound having 10 or more and less than 20 is denoted as A)
3 | CCC[C@H]1C(=O)N[C@@H]([C@@H](C)CC)C(=O)N(C)CC(=O)N(C)[C@H]2C/C=C\CCN(C2=O)[C@@H](Cc2ccc(C(F)(F)F)cc2)C(=O)N(C)CC(=O)N[C@@H](CCc2cc(F)c(C(F)(F)F)c(F)c2)C(=O)N(C)[C@@H](COC)C(=O)NC2(CC(C)(C)C2)C(=O)N(C)[C@@H](C2CCCC2)C(=O)N(C)[C@H](C(=O)N(C)C)CC(=O)N1C [PP1936] | AA (a compound having 20 or more is denoted as AA) | A (a compound having 10 or more and less than 20 is denoted as A)
4 | CCO[C@@H]1C[C@H]2C(=O)NC(C)(C)C(=O)N(C)[C@@H](C3CCCC3)C(=O)N(C)[C@H](C(=O)N(C)CC)CC(=O)N(C)[C@@H](CC(C)C)C(=O)N[C@@H]([C@@H](C)CC)C(=O)N(C)CC(=O)N(C)[C@H]3C/C=C\CCN(C3=O)[C@@H](Cc3ccc(C(F)(F)F)cc3)C(=O)N(C)CC(=O)N[C@@H](CCc3cc(F)c(C(F)(F)F)c(F)c3)C(=O)N2C1 [PP1937] | A (a compound having 10 or more and less than 20 is denoted as A) | A (a compound having 10 or more and less than 20 is denoted as A)
5 | CCCN(C)C(=O)[C@@H]1CC(=O)N(C)[C@@H](CC(C)C)C(=O)N[C@@H]([C@@H](C)CC)C(=O)N(C)CC(=O)N(C)[C@H]2C/C=C\CCN(C2=O)[C@@H](Cc2ccc(C(F)(F)F)cc2)C(=O)N(C)CC(=O)N[C@@H](CCc2cc(F)c(C(F)(F)F)c(F)c2)C(=O)N2C[C@H](OCC)C[C@H]2C(=O)NC2(COC2)C(=O)N(C)[C@@H](C2CCCC2)C(=O)N1C [PP1938] | AA (a compound having 20 or more is denoted as AA) | A (a compound having 10 or more and less than 20 is denoted as A)
6 | CCC[C@H]1C(=O)N[C@@H]([C@@H](C)CC)C(=O)N(C)CC(=O)N(C)[C@H]2C/C=C\CCN(C2=O)[C@@H](Cc2ccc(C(F)(F)F)cc2)C(=O)N(C)CC(=O)N[C@@H](CCc2cc(F)c(C(F)(F)F)c(F)c2)C(=O)N2C[C@H](OCC)C[C@H]2C(=O)NC2(CC(C)(C)C2)C(=O)N(C)[C@@H]([C@@H](C)CC)C(=O)N(C)[C@H](C(=O)N(C)C)CC(=O)N1C [PP1941] | A (a compound having 10 or more and less than 20 is denoted as A) | A (a compound having 10 or more and less than 20 is denoted as A)
7 | CCO[C@@H]1C[C@H]2C(=O)NC3(CC(C)(C)C3)C(=O)N(C)[C@@H](C3CCCCC3)C(=O)N(C)[C@H](C(=O)N(C)C)CC(=O)N(C)[C@@H](CC)C(=O)N[C@@H]([C@@H](C)CC)C(=O)N(C)CC(=O)N(C)[C@H]3C/C=C\CCN(C3=O)[C@@H](Cc3ccc(C(F)(F)F)cc3)C(=O)N(C)CC(=O)N[C@@H](CCc3cc(F)c(C(F)(F)F)c(F)c3)C(=O)N2C1 [PP1942] | AA (a compound having 20 or more is denoted as AA) | A (a compound having 10 or more and less than 20 is denoted as A)
8 | CCC[C@H]1C(=O)N[C@@H]([C@@H](C)CC)C(=O)N(C)CC(=O)N(C)[C@H]2C/C=C\CCN(C2=O)[C@@H](Cc2ccc(C(F)(F)F)cc2)C(=O)N(C)CC(=O)N[C@@H](CCc2cc(F)c(C(F)(F)F)c(F)c2)C(=O)N2C[C@H](OCC)C[C@H]2C(=O)NC2(CC(C)(C)C2)C(=O)N(C)[C@@H](C2CCCC2)C(=O)N(C)[C@H](C(=O)N2CCC2)CC(=O)N1C [PP1943] | A (a compound having 10 or more and less than 20 is denoted as A) | B (a compound having 3 or more and less than 10 is denoted as B)
9 | CCO[C@@H]1C[C@H]2C(=O)NC3(CC(C)(C)C3)C(=O)N(C)[C@@H](C3CCCC3)C(=O)N(C)[C@H](C(=O)N3CCCC3)CC(=O)N(C)[C@@H](CC)C(=O)N[C@@H]([C@@H](C)CC)C(=O)N(C)CC(=O)N(C)[C@H]3C/C=C\CCN(C3=O)[C@@H](Cc3ccc(C(F)(F)F)cc3)C(=O)N(C)CC(=O)N[C@@H](CCc3cc(F)c(C(F)(F)F)c(F)c3)C(=O)N2C1 [PP1944] | A (a compound having 10 or more and less than 20 is denoted as A) | A (a compound having 10 or more and less than 20 is denoted as A)
10 | CCO[C@@H]1C[C@H]2C(=O)NC3(CC(C)(C)C3)C(=O)N(C)[C@@H](C3CCCC3)C(=O)N(C)[C@H](C(=O)N3CCCCC3)CC(=O)N(C)[C@@H](CC)C(=O)N[C@@H]([C@@H](C)CC)C(=O)N(C)CC(=O)N(C)[C@H]3C/C=C\CCN(C3=O)[C@@H](Cc3ccc(C(F)(F)F)cc3)C(=O)N(C)CC(=O)N[C@@H](CCc3cc(F)c(C(F)(F)F)c(F)c3)C(=O)N2C1 [PP1945] | AA (a compound having 20 or more is denoted as AA) | A (a compound having 10 or more and less than 20 is denoted as A)
11 | CCCN1C(=O)CN(C)C(=O)CN(C)C(=O)[C@H]([C@@H](C)CC)NC(=O)[C@H](CC(C)C)N(CC)C(=O)C[C@@H](C(=O)N2CCOCC2)N(C)C(=O)[C@H](C2CCCC2)N(C)C(=O)C2(CCC2)NC(=O)[C@@H]2CCCN2C(=O)[C@H](CCc2ccc(C(F)(F)F)c(Cl)c2)NC(=O)CN(C)C(=O)[C@@H]1Cc1ccc(C(F)(F)F)cc1 [PP1946] ([NEtLeu]I[Sar][Sar][NPrPhe(4-CF3)][Sar][hPhe(3-Cl-4-CF3)]P[Ac4c][NMeGly(cPent)][NMeD]-Morpholide; lactam N-11) | B (a compound having 3 or more and less than 10 is denoted as B) | C (A compound having a KD ratio of 0.1 or more and less than 3 is denoted as C)
12 | CCC[C@H]1C(=O)N[C@@H]([C@@H](C)CC)C(=O)N(CCC)CC(=O)N(C)CC(=O)N(CCC)[C@@H](Cc2ccc(C(F)(F)F)cc2)C(=O)N(C)CC(=O)N[C@@H](CCc2ccc(C(F)(F)F)c(Cl)c2)C(=O)N2CCC[C@H]2C(=O)NC2(CCC2)C(=O)N(C)[C@@H](C2CCCC2)C(=O)N(C)[C@H](C(=O)N2CCOCC2)CC(=O)N1C [PP1947] ([NMeNva]I[NPrGly][Sar][NPrPhe(4-CF3)][Sar][hPhe(3-Cl-4-CF3)]P[Ac4c][NMeGly(cPent)][NMeD]-Morpholide; lactam N-11) | B (a compound having 3 or more and less than 10 is denoted as B) | B (a compound having 3 or more and less than 10 is denoted as B)
13 | CCCN1C(=O)CN(CC)C(=O)CN(C)C(=O)[C@H]([C@@H](C)CC)NC(=O)[C@H](CC(C)C)N(C)C(=O)C[C@@H](C(=O)N2CCOCC2)N(C)C(=O)[C@H](C2CCCC2)N(C)C(=O)C2(CCC2)NC(=O)[C@@H]2CCCN2C(=O)[C@H](CCc2ccc(C(F)(F)F)c(Cl)c2)NC(=O)CN(C)C(=O)[C@@H]1Cc1ccc(C(F)(F)F)cc1 [PP1948] ([NMeL]I[Sar][NEtG][NPrPhe(4-CF3)][Sar][hPhe(3-Cl-4-CF3)]P[Ac4c][NMeGly(cPent)][NMeD]-Morpholide; lactam N-11) | C (A compound having a KD ratio of 0.1 or more and less than 3 is denoted as C) | C (A compound having a KD ratio of 0.1 or more and less than 3 is denoted as C)
14 | CCC[C@H]1C(=O)N[C@@H]([C@@H](C)CC)C(=O)N(C)CC(=O)N(CCC)CC(=O)N(CCC)[C@@H](Cc2ccc(C(F)(F)F)cc2)C(=O)N(C)CC(=O)N[C@@H](CCc2ccc(C(F)(F)F)c(Cl)c2)C(=O)N2CCC[C@H]2C(=O)NC2(CCC2)C(=O)N(C)[C@@H](C2CCCC2)C(=O)N(C)[C@H](C(=O)N2CCOCC2)CC(=O)N1C [PP1949] ([NMeNva]I[Sar][NPrGly][NPrPhe(4-CF3)][Sar][hPhe(3-Cl-4-CF3)]P[Ac4c][NMeGly(cPent)][NMeD]-Morpholide; lactam N-11) | C (A compound having a KD ratio of 0.1 or more and less than 3 is denoted as C) | C (A compound having a KD ratio of 0.1 or more and less than 3 is denoted as C)
15 | CCCN1C(=O)CN(C)C(=O)CN(C)C(=O)[C@H]([C@@H](C)CC)NC(=O)[C@H](CC(C)C)N(C)C(=O)C[C@@H](C(=O)N2CCOCC2)N(C)C(=O)[C@H](C2CCCC2)N(C)C(=O)C2(CCC2)NC(=O)[C@@H]2CCCN2C(=O)[C@H](CCc2ccc(C(F)(F)F)c(Cl)c2)NC(=O)CN(CC)C(=O)[C@@H]1Cc1ccc(C(F)(F)F)cc1 [PP1950] ([NMeL]I[Sar][Sar][NPrPhe(4-CF3)][NEtG][hPhe(3-Cl-4-CF3)]P[Ac4c][NMeGly(cPent)][NMeD]-Morpholide; lactam N-11) | B (a compound having 3 or more and less than 10 is denoted as B) | C (A compound having a KD ratio of 0.1 or more and less than 3 is denoted as C)
